Results published in ChEMBL document CHEMBL3414484, “Novel imidazole derivatives as heme oxygenase-1 (HO-1) and heme oxygenase-2 (HO-2) inhibitors and their cytotoxic activity in human-derived cancer cell lines” (Eur J Med Chem, 2015).

Tests used:
Heme oxygenase 2 = target: T1, Heme oxygenase 2 (Rattus norvegicus, UniProt P23711); assay: Inhibition of HO2 in Sprague-Dawley rat brain microsomal fraction assessed as reduction in bilirubin formation incubated for 60 mins by double beam spectrophotometry
T1 sequence (P23711 whole entry): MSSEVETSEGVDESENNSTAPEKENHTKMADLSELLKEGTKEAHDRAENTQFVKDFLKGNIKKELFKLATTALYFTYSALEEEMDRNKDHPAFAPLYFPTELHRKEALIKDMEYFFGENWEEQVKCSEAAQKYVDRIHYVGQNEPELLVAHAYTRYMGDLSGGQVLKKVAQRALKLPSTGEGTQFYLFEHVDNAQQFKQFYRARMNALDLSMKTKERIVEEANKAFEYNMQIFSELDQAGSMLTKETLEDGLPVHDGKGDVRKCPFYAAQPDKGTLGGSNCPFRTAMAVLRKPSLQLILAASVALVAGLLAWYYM

MDA-MB-231 = assay: Cytotoxicity against human MDA-MB-231 cells incubated for 72 hrs by sulforhodamine B assay; assay type: functional, cell-based; conditions: MDA-MB-231, 72 h
MCF7 = assay: Cytotoxicity against human MCF7 cells incubated for 72 hrs by sulforhodamine B assay; assay type: functional, cell-based; conditions: MCF7, 72 h
DU-145 [1] = assay: Cytotoxicity against human DU145 cells incubated for 72 hrs by sulforhodamine B assay; assay type: functional, cell-based; conditions: DU-145, 72 h
[2] = Cytotoxicity against human PC3 cells incubated for 72 hrs by sulforhodamine B assay; assay type: functional, cell-based; conditions: PC-3, 72 h
LNCaP [3] = assay: Cytotoxicity against human LNCAP cells incubated for 72 hrs by sulforhodamine B assay; assay type: functional, cell-based
MDCK [4] = assay: Cytotoxicity against MDCK cells incubated for 72 hrs by sulforhodamine B assay; assay type: cell-based; conditions: Canis lupus familiaris
MDCK [5] = assay: Selectivity index, ratio of IC50 for MDCK cells to IC50 human MDA-MB-231 cells
MDCK [6] = assay: Selectivity index, ratio of IC50 for MDCK cells to IC50 human MCF7 cells
DU-145 [7] = assay: Selectivity index, ratio of IC50 for MDCK cells to IC50 human DU145 cells
MDCK [8] = assay: Selectivity index, ratio of IC50 for MDCK cells to IC50 human PC3 cells
LNCaP [9] = assay: Selectivity index, ratio of IC50 for MDCK cells to IC50 human LNCAP cells
Heme oxygenase 1 = target: T2, Heme oxygenase 1 (Rattus norvegicus, UniProt P06762); assay: Inhibition of HO1 in Sprague-Dawley rat spleen microsomal fraction assessed as reduction in bilirubin formation incubated for 60 mins by double beam spectrophotometry; assay type: microsomes
T2 sequence (P06762 whole entry): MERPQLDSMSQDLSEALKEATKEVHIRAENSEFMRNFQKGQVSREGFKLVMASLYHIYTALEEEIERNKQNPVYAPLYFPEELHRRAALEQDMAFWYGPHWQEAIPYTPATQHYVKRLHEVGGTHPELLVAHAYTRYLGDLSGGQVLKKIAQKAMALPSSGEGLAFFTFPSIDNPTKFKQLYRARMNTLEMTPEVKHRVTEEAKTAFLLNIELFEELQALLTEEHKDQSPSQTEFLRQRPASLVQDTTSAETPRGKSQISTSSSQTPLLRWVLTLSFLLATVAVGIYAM

Brc1cccc(OCCCCn2cncn2)c1
IC50 (Heme oxygenase 2): 11.2 µM

O=[N+]([O-])c1ccc(OCCCn2cncn2)cc1
IC50 (Heme oxygenase 2): 44.7 µM

c1ccc(OCCCn2cncn2)cc1
IC50 (Heme oxygenase 2): > 100 µM

O=[N+]([O-])c1ccc(OCCCn2ccnc2)cc1
IC50 (Heme oxygenase 2): 77.6 µM

O=[N+]([O-])c1ccc(OCCCCn2cncn2)cc1
IC50 (Heme oxygenase 2): 41.7 µM

Brc1cccc(OCCCn2cncn2)c1
IC50 (Heme oxygenase 2): 33.9 µM

Ic1ccc(OCCCn2ccnc2)cc1
IC50 (Heme oxygenase 2): 36.3 µM

Ic1ccc(OCCCCn2ccnc2)cc1
IC50 (MDA-MB-231): 55.1 µM | IC50 (MCF7): 27.7 µM | IC50 (DU-145 [1]): 54.9 µM | IC50 [2]: 82.5 µM | IC50 (LNCaP [3]): 16.9 µM | IC50 (MDCK [4]): 103 µM | Ratio IC50 (MDCK [5]): 2 | Ratio IC50 (MDCK [6]): 2 | Ratio IC50 (DU-145 [7]): 2 | Ratio IC50 (MDCK [8]): 2 | Ratio IC50 (LNCaP [9]): 2

Brc1cccc(OCCCCCn2ccnc2)c1
IC50 (Heme oxygenase 1): 42.6 µM | IC50 (Heme oxygenase 2): 0.9 µM

Brc1cccc(OCCCCCCn2ccnc2)c1
IC50 (Heme oxygenase 1): 34 µM | IC50 (Heme oxygenase 2): 41 µM

Ic1ccc(OCCCCCn2ccnc2)cc1
IC50 (Heme oxygenase 1): 44 µM | IC50 (Heme oxygenase 2): 0.9 µM | IC50 (MDA-MB-231): 27.4 µM | IC50 (MCF7): 11 µM | IC50 (DU-145 [1]): 27.7 µM | IC50 [2]: 27.6 µM | IC50 (LNCaP [3]): 27.8 µM | IC50 (MDCK [4]): 55.1 µM | Ratio IC50 (MDCK [5]): 2 | Ratio IC50 (MDCK [6]): 2 | Ratio IC50 (DU-145 [7]): 2 | Ratio IC50 (MDCK [8]): 2 | Ratio IC50 (LNCaP [9]): 2

Ic1ccc(OCCCCCCn2ccnc2)cc1
IC50 (Heme oxygenase 1): 42 µM | IC50 (Heme oxygenase 2): > 100 µM

c1ccc2oc(SCCCn3ccnc3)nc2c1
IC50 (Heme oxygenase 1): 16.9 µM | IC50 (Heme oxygenase 2): 49 µM

c1ccc2oc(SCCCCn3ccnc3)nc2c1
IC50 (Heme oxygenase 1): 30.9 µM | IC50 (Heme oxygenase 2): 74.1 µM

c1ccc2sc(SCCCn3ccnc3)nc2c1
IC50 (Heme oxygenase 1): 0.9 µM | IC50 (Heme oxygenase 2): 12.5 µM | IC50 (MDA-MB-231): 55.1 µM | IC50 (MCF7): 27.5 µM | IC50 (DU-145 [1]): 54.8 µM | IC50 [2]: 82.6 µM | IC50 (LNCaP [3]): 55 µM | IC50 (MDCK [4]): 82.4 µM | Ratio IC50 (MDCK [5]): 2 | Ratio IC50 (MDCK [6]): 2 | Ratio IC50 (DU-145 [7]): 2 | Ratio IC50 (MDCK [8]): 2 | Ratio IC50 (LNCaP [9]): 2

c1ccc2sc(SCCCCn3ccnc3)nc2c1
IC50 (Heme oxygenase 1): 1 µM | IC50 (Heme oxygenase 2): 0.8 µM | IC50 (MDA-MB-231): 55.1 µM | IC50 (MCF7): 27.5 µM | IC50 (DU-145 [1]): 82.2 µM | IC50 [2]: 82.5 µM | IC50 (LNCaP [3]): 54.7 µM | IC50 (MDCK [4]): 58.5 µM | Ratio IC50 (MDCK [5]): 2 | Ratio IC50 (MDCK [6]): 2 | Ratio IC50 (DU-145 [7]): 2 | Ratio IC50 (MDCK [8]): 2 | Ratio IC50 (LNCaP [9]): 2

c1ccc2sc(SCCCCCn3ccnc3)nc2c1
IC50 (Heme oxygenase 1): 39.8 µM | IC50 (Heme oxygenase 2): 11.2 µM

Clc1ccc2sc(SCCCn3ccnc3)nc2c1
IC50 (Heme oxygenase 1): 18.4 µM | IC50 (Heme oxygenase 2): 0.9 µM

Clc1ccc2sc(SCCCCn3ccnc3)nc2c1
IC50 (Heme oxygenase 1): > 100 µM | IC50 (Heme oxygenase 2): 0.9 µM

Clc1ccc2sc(SCCCCCn3ccnc3)nc2c1
IC50 (Heme oxygenase 1): 36.3 µM | IC50 (Heme oxygenase 2): 0.9 µM

O=c1oc2ccccc2n1CCCCn1ccnc1
IC50 (Heme oxygenase 1): 17.7 µM | IC50 (Heme oxygenase 2): 35.5 µM

O=c1sc2ccccc2n1CCCn1ccnc1
IC50 (Heme oxygenase 1): 16.6 µM | IC50 (Heme oxygenase 2): 28.8 µM

Brc1cccc(OCCCCCn2cncn2)c1
IC50 (Heme oxygenase 1): 20 µM | IC50 (Heme oxygenase 2): 0.8 µM

Brc1cccc(OCCCCn2ccnc2)c1
IC50 (MDA-MB-231): 27.5 µM | IC50 (MCF7): 27.6 µM | IC50 (DU-145 [1]): 46.6 µM | IC50 [2]: 54.9 µM | IC50 (LNCaP [3]): 27.6 µM | IC50 (MDCK [4]): 82.4 µM | Ratio IC50 (MDCK [5]): 2 | Ratio IC50 (MDCK [6]): 2 | Ratio IC50 (DU-145 [7]): 2 | Ratio IC50 (MDCK [8]): 2 | Ratio IC50 (LNCaP [9]): 2
